According to ChEMBL document CHEMBL3880428, “Sulfonamide derivative having PGD2 receptor antagonistic activity” (2012):

What was measured:
Type in all cases: cell-based
HEK293 [1] = assay: Selectivity ratio of IC50 for PGD2 receptor in human platelets to IC50 for human EP1 receptor expressed in HEK293 cells by cAMP accumulation assay
HEK293 [2] = assay: Selectivity ratio of IC50 for PGD2 receptor in human platelets to IC50 for human TP receptor expressed in HEK293 cells by cAMP accumulation assay
HEK293 [3] = assay: Selectivity ratio of IC50 for PGD2 receptor in human platelets to IC50 for human EP3 receptor expressed in HEK293 cells by cAMP accumulation assay
HEK293 [4] = assay: Selectivity ratio of IC50 for PGD2 receptor in human platelets to IC50 for human IP receptor expressed in HEK293 cells by cAMP accumulation assay
HEK293 [5] = assay: Selectivity ratio of IC50 for PGD2 receptor in human platelets to IC50 for human EP4 receptor expressed in HEK293 cells by cAMP accumulation assay
HEK293 [6] = assay: Selectivity ratio of IC50 for PGD2 receptor in human platelets to IC50 for human EP2 receptor expressed in HEK293 cells by cAMP accumulation assay
HEK293 [7] = assay: Selectivity ratio of IC50 for PGD2 receptor in human platelets to IC50 for human FP receptor expressed in HEK293 cells by cAMP accumulation assay

Measured: Ratio IC50

CC(C)Oc1ccc(S(=O)(=O)N2CCN(c3ccc(C(N)=O)c(OCC(=O)O)c3)CC2)cc1
> 20: HEK293 [1] | HEK293 [2] | HEK293 [3] | HEK293 [4] | HEK293 [5] | HEK293 [6] | HEK293 [7]

CC[C@@H](C)Oc1ccc(S(=O)(=O)N2CCN(c3ccc(Cl)c(OCC(=O)O)c3)CC2)cc1
> 20: HEK293 [1] | HEK293 [2] | HEK293 [3] | HEK293 [4] | HEK293 [5] | HEK293 [6] | HEK293 [7]

CC(C)Oc1ccc(S(=O)(=O)N2CCC(Oc3ccc(F)cc3CCC(=O)O)CC2)cc1
> 20: HEK293 [1] | HEK293 [2] | HEK293 [3] | HEK293 [4] | HEK293 [5] | HEK293 [6] | HEK293 [7]

CC(C)Oc1ccc(S(=O)(=O)N2CCN(c3cc(F)c(F)c(OCC(=O)O)c3)CC2)cn1
> 20: HEK293 [1] | HEK293 [2] | HEK293 [3] | HEK293 [4] | HEK293 [5] | HEK293 [6] | HEK293 [7]

CC(C)Oc1ccc(S(=O)(=O)N2CCN(c3ccc(NC(=O)c4ccccc4)c(OCC(=O)O)c3)CC2)cc1
> 20: HEK293 [1] | HEK293 [2] | HEK293 [3] | HEK293 [4] | HEK293 [5] | HEK293 [6] | HEK293 [7]

CC(C)Oc1ccc(S(=O)(=O)N2CCN(c3ccc(C(=O)Nc4ccccc4)c(OCC(=O)O)c3)CC2)cc1
> 20: HEK293 [1] | HEK293 [2] | HEK293 [3] | HEK293 [4] | HEK293 [5] | HEK293 [6] | HEK293 [7]

CC(C)Oc1ccc(S(=O)(=O)N2CCN(c3ccc(Cl)c(CC(=O)O)c3)CC2)cc1
> 20: HEK293 [1] | HEK293 [2] | HEK293 [3] | HEK293 [4] | HEK293 [5] | HEK293 [6] | HEK293 [7]

CC(C)Oc1ccc(S(=O)(=O)N2CCN(c3ccc(OCc4ccoc4)c(OCC(=O)O)c3)CC2)cc1
> 20: HEK293 [1] | HEK293 [2] | HEK293 [3] | HEK293 [4] | HEK293 [5] | HEK293 [6] | HEK293 [7]

Cc1nnc(-c2ccc(N3CCN(S(=O)(=O)c4ccc(OC(C)C)cc4)CC3)cc2OCC(=O)O)o1
> 20: HEK293 [1] | HEK293 [2] | HEK293 [3] | HEK293 [4] | HEK293 [5] | HEK293 [6] | HEK293 [7]

CC(C)NC(=O)Nc1ccc(N2CCN(S(=O)(=O)c3ccc(OC(C)C)cc3)CC2)cc1OCC(=O)O
> 20: HEK293 [1] | HEK293 [2] | HEK293 [3] | HEK293 [4] | HEK293 [5] | HEK293 [6] | HEK293 [7]
